Test results from patent publication US9447136B2, “Semisynthetic derivatives of Nystatin A1” (BLIRT S.A., priority 2012, dated 2016).
In brackets after ≈: the same amount, converted by molar mass.

Legend:
Human erythrocytes = assay: Hemotoxicity (hemolytic activity); settings: human erythrocytes; concentration causing 10% of hemolysis
Outline: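 Human erythrocytes in saline (2×10^7/ml) were incubated with serially diluted compound at 37 °C for 30 min, then centrifuged. Released hemoglobin was read as A540 against 0.1% Triton X-100 as full hemolysis. EH50 is the interpolated concentration giving 50% of the control A540.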

CCRF-CEM = assay: Cytotoxic activity against mammalian cells in tissue culture (MTT); assay type: cell-based, human; settings: CCRF-CEM, 120 h, MTT
Outline: (§1)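 Cells at 1.2×10^4/well were exposed to serial 2× DMSO dilutions for 120 h at 37 °C: CCRF-CEM in RPMI 1640 + 10% FBS, HepG2 in MEM + 10% FBS, LLC-PK1 in Medium 199 + 3% FBS. MTT was added for 4 h and A540 read. IC50 is the concentration halving A540 versus DMSO control.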

HepG2 = assay: as above; assay type: cell-based, human; settings: HepG2, 120 h, MTT
Outline: as §1

LLC-PK1 = assay: as above; assay type: cell-based, pig; settings: LLC-PK1, 120 h, MTT
Outline: as §1

[1] = test system: Saccharomyces cerevisiae ATCC 9763; assay: Antifungal activity in vitro, serial dilution in RPMI 1640; assay type: cell-based
Outline: (§2)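 Serial dilution, RPMI 1640 pH 7.0 (M27-A2 reference method); A531 read-out. IC50 = interpolated conc. at 50% of control A531; MIC = lowest conc. with A531 ≤20% of control.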

[2] = test system: Candida lusitaniae DSM 70102; assay: as above; assay type: cell-based; settings: Table 2A; RPMI 1640, pH 7.0
Outline: as §2

Candida krusei DSM 6128 = assay: as above; assay type: cell-based; settings: Table 2A; RPMI 1640, pH 7.0
Outline: as §2

[3] = test system: Candida quilliermondii DSM 11947; assay: as above; assay type: cell-based; settings: Table 2B
Outline: as §2

[4] = test system: Candida glabrata DSM 11226; assay: as above; assay type: cell-based; settings: Table 2A; RPMI 1640, pH 7.0
Outline: as §2

[5] = test system: Aspergillus niger LOCK E201; assay: as above; assay type: cell-based; settings: Table 2B
Outline: as §2

[6] = test system: Trichoderma viride LOCK E159; assay: as above; assay type: cell-based; settings: Table 2B
Outline: as §2

[7] = test system: Candida albicans ATCC 10231; assay: as above; assay type: cell-based
Outline: as §2

[8] = test system: Candida tropicalis KKP 334; assay: as above; assay type: cell-based; settings: Table 2A; RPMI 1640, pH 7.0
Outline: as §2

Candida arborea KKP 319 = assay: as above; assay type: cell-based; settings: Table 2B
Outline: as §2

[9] = test system: Candida dubliniensis CBS 7987; assay: as above; assay type: cell-based; settings: Table 2B
Outline: as §2

[10] = test system: Candida pseudotropicalis KKP 324; assay: as above; assay type: cell-based; settings: Table 2B
Outline: as §2

[11] = test system: Candida lipolytica KKP 322; assay: as above; assay type: cell-based; settings: Table 2B
Outline: as §2

[12] = test system: Candida stellatoidea CBS 1905; assay: as above; assay type: cell-based; settings: Table 2B
Outline: as §2

[13] = test system: Candida parapsilosis DSM 5784; assay: as above; assay type: cell-based; settings: Table 2B
Outline: as §2

Candida albicans STY31 = assay: Antifungal activity towards resistant (MDR) strains; assay type: cell-based; settings: 5674 mutant derivative, deletion of CDR1 and CDR2
Outline: (§3)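 Susceptibility testing used the M27-A2 reference broth dilution method with serial compound dilutions in buffered RPMI 1640. MIC defined at ≤20% of control A660.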

Candida albicans STY19 = assay: as above; assay type: cell-based; settings: 5674 mutant derivative, deletion of CDR1
Outline: as §3

Candida albicans STY7 = assay: as above; assay type: cell-based; settings: 5674 mutant derivative, deletion of CDR2
Outline: as §3

Candida albicans Gu5 = assay: as above; assay type: cell-based; settings: fluconazole-resistant due to the overexpression of CDR1 and CDR2
Outline: (§4)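 Compounds are serially diluted in buffered RPMI 1640 per the M27-A2 broth dilution standard. Cell suspension density is measured at 660 nm. Plots of A660 against compound concentration give the MIC, defined as the concentration holding A660 to at most 20% of control.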

Candida albicans B4 = assay: as above; assay type: cell-based; settings: fluconazole-resistant due to the overexpression of CaMDR1
Outline: as §3

Candida albicans B3 = assay: as above; assay type: cell-based; settings: fluconazole sensitive, parent strain for B4
Outline: as §4

Candida albicans F2 = assay: as above; assay type: cell-based; settings: fluconazole sensitive, parent strain for F5
Outline: as §4

Candida albicans F5 = assay: as above; assay type: cell-based; settings: fluconazole-resistant due to the overexpression of CaMDR1 and ERG11
Outline: as §3

Candida albicans 5674 = assay: as above; assay type: cell-based; settings: C. albicans 5674 overexpressing CDR1 and CDR2
Outline: as §3

Candida albicans Gu4 = assay: as above; assay type: cell-based; settings: fluconazole sensitive, parent strain for Gu5
Outline: as §4

[14] = Table 2A, RPMI 1640, pH 7.0, A531 at most 20% of control

Question: `CC1OC(O[C@H]2/C=C/C=C/C=C/C=C/CC/C=C/C=C/[C@H](C)[C@@H](O)[C@@H](C)[C@H](C)OC(=O)C[C@H](O)C[C@H](O)C[C@H](O)CC[C@@H](O)[C@H](O)CC3(O)C[C@H](O)[C@@H](C(=O)O)[C@H](C2)O3)C(O)C(NC(=S)NCC(C)(C)CN(C)C)C1O` (some centres unmarked) [Compound N19, N-{3-[3-(N,N-dimethylamino)-2,2-dimethylpropyl]thioureidyl}nystatin A1] was tested. Which EH10 (Human erythrocytes) did it give?
Answer: The EH10 was 209.91 µg/mL.

Question: What about the “Cytotoxicity IC50 CCRF-CEM” value (CCRF-CEM) of the same compound?
Answer: The value was >100 µg/mL.

Question: And the “Cytotoxicity IC50 HepG2” value (HepG2)?
Answer: The value was >100 µg/mL.

Question: What about the “Cytotoxicity IC50 LLC-PK1” value (LLC-PK1) of the same compound?
Answer: Its value is >100 µg/mL.

Question: And the “Antifungal activity Saccharomyces cerevisiae ATCC 9763 MIC” value [1, 14]?
Answer: Its value is 4 µg/mL.

Question: What about the “MIC Saccharomyces cerevisiae ATCC 9763” value ([1]; Table 2B) of the same compound?
Answer: The value was 4 µg/mL (≈ 3.64 µM).

Question: And the “Antifungal activity Candida lusitaniae DSM 70102 MIC” value [2]?
Answer: Its value is 4 µg/mL.

Question: And the “Antifungal activity Candida krusei DSM 6128 MIC” value (Candida krusei DSM 6128)?
Answer: The value was 8 µg/mL.

Question: And the “MIC Candida quilliermondii DSM 11947” value [3]?
Answer: Its value is 4 µg/mL (≈ 3.64 µM).

Question: And the “Antifungal activity Candida glabrata DSM 11226 MIC” value [4]?
Answer: The value was 8 µg/mL.

Question: What about the “MIC Aspergillus niger LOCK E201” value [5] of the same compound?
Answer: Its value is 8 µg/mL (≈ 7.28 µM).

Question: What about the “MIC Trichoderma viride LOCK E159” value [6] of the same compound?
Answer: The value was 8 µg/mL (≈ 7.28 µM).

Question: What about the “Antifungal activity Candida albicans ATCC 10231 IC50” value ([7]; Table 2A, RPMI 1640, pH 7.0, A531 50% of control) of the same compound?
Answer: Its value is 2.90 µg/mL.

Question: What about the “Antifungal activity Candida albicans ATCC 10231 MIC” value [7, 14] of the same compound?
Answer: Its value is 4 µg/mL.

Question: What about the “MIC Candida albicans ATCC 10231” value ([7]; Table 2B) of the same compound?
Answer: Its value is 4 µg/mL (≈ 3.64 µM).

Question: And the “Antifungal activity Candida tropicalis KKP 334 MIC” value [8]?
Answer: Its value is 4 µg/mL.

Question: What about the “MIC Candida arborea KKP 319” value (Candida arborea KKP 319) of the same compound?
Answer: The value was 4 µg/mL (≈ 3.64 µM).

Question: And the “MIC Candida dubliniensis CBS 7987” value [9]?
Answer: Its value is 4 µg/mL (≈ 3.64 µM).

Question: And the “MIC Candida pseudotropicalis KKP 324” value [10]?
Answer: Its value is 4 µg/mL (≈ 3.64 µM).

Question: And the “MIC Candida lipolytica KKP 322” value [11]?
Answer: The value was 4 µg/mL (≈ 3.64 µM).

Question: What about the “MIC Candida stellatoidea CBS 1905” value [12] of the same compound?
Answer: Its value is 8 µg/mL (≈ 7.28 µM).

Question: And the “MIC Candida parapsilosis DSM 5784” value [13]?
Answer: Its value is 4 µg/mL (≈ 3.64 µM).

Question: And the “MIC Candida albicans STY31” value (Candida albicans STY31)?
Answer: Its value is 4 µg/mL (≈ 3.64 µM).

Question: And the “MIC Candida albicans STY19” value (Candida albicans STY19)?
Answer: Its value is 4 µg/mL (≈ 3.64 µM).

Question: And the “MIC Candida albicans STY7” value (Candida albicans STY7)?
Answer: Its value is 4 µg/mL (≈ 3.64 µM).

Question: And the “MIC Candida albicans Gu5” value (Candida albicans Gu5)?
Answer: The value was 4 µg/mL (≈ 3.64 µM).

Question: And the “MIC Candida albicans B4” value (Candida albicans B4)?
Answer: Its value is 4 µg/mL (≈ 3.64 µM).

Question: And the “MIC Candida albicans B3” value (Candida albicans B3)?
Answer: The value was 4 µg/mL (≈ 3.64 µM).

Question: And the “MIC Candida albicans F2” value (Candida albicans F2)?
Answer: The value was 4 µg/mL (≈ 3.64 µM).

Question: What about the “MIC Candida albicans F5” value (Candida albicans F5) of the same compound?
Answer: The value was 4 µg/mL (≈ 3.64 µM).

Question: What about the “MIC Candida albicans 5674” value (Candida albicans 5674) of the same compound?
Answer: Its value is 4 µg/mL (≈ 3.64 µM).

Question: And the “MIC Candida albicans Gu4” value (Candida albicans Gu4)?
Answer: Its value is 4 µg/mL (≈ 3.64 µM).
